Measurements: US9499614B2, “Methods for modulating protein glycosylation profiles of recombinant protein therapeutics using monosaccharides and oligosaccharides” (AbbVie, Inc., priority 2013, dated 2016)

Test system: Cell Line 3
Assay: N-glycan oligosaccharide profiling, Cell Line 3 shake flasks (Example 2)
Format: cell-based, Chinese Hamster
Conditions: 30 mM supplement vs control
Protocol: Two recombinant Chinese Hamster Ovary (CHO) cell lines expressing two different recombinant glycoproteins were evaluated in two different cultures vessels (shaker flasks and 3 L laboratory scale bioreactors). Cell Line 1 expressed Antibody 1, Cell Line 2 expressed Dual Variable Domain Immunoglobulin 1 (DVD 1) and Cell Line 3 expressed Antibody 2. Antibodies 1 and 2 are IgG1 proteins, and DVD 1 is an immunoglobulin with two variable domains as documented previously (Wu C. et al., (2007) Nat. Biotechnol 25(11):1290-1297). All cell lines were of CHO DUX-B11 origin based on a dhfr (dihydrofolate reductase) expression system. All cell lines were cultured in the same chemically defined basal media. Cell lines 1 and 2 were fed with the same chemically-defined feed media, but Cell Line 1 was fed media that was formulated at a 50% higher concentration. Each of the respective media were supplemented with either sucrose or tagatose to evaluate their potential impact on the resulting N-glycan oligosaccharide profile. All sugars were purchased from Sigma-Aldrich (St. Louis, Mo.). In preparation of the cultures, the cell lines were serially expanded through separate seed train inoculums to generate enough cells for inoculation.
Purified antibodies subjected to additional analytical characterization were purified using MabSelect™ Protein A (GE Healthcare, Piscataway, N.J.) using a low pH, step elution gradient, followed by buffer exchange using Corning Lifesciences (Tewksbury, Mass.) Spin Concentrator X UF columns according to the manufacturers' recommended procedures.
Approximately 200 μg of Protein A purified samples from Cell Lines 1 and 2 were treated with N-glycanase at 37° C. overnight to remove the N-glycans from the protein. The protein was precipitated and the supernatant was taken for subsequent chemical derivatization of the reducing end of the released glycans with 2-aminobenzamide (2-AB) dye. Following the derivatization step, the excess label was removed using clean up cartridges and the samples were analyzed using normal phase HPLC with fluorescent detection. Mobile phase A was 100% acetonitrile and mobile phase B was 50 mM ammonium formate pH 4.4. The glycans were eluted from a polyamide column (Prozyme, Hayward, Calif.) using a shallow gradient. The labeled glycans were detected using a fluorescence detector with an excitation wavelength of 330 nm and an emission wavelength of 420 nm.
Cell Line 3 was evaluated in shake flask culture in chemically defined media supplemented with 7, 15, and 30 mM sucrose. There was a significant increase in overall mannosylation levels, and thus a significant decrease in overall fucosylation levels. […] This cumulative increase of 19% in overall mannosylated N-glycans was accompanied by a 27% drop in NGA2F species, the majority of which was precluded from being formed due to the abrogation of the N-glycan biosynthetic reaction shown in FIG. 2. […] Antibody 3, purified from the sucrose supplemented cell cultures, was tested in a Cr-51 release assay to evaluate effector function, specifically ADCC activity. This was performed to verify that the lower level of fucosylated N-glycans linked to Antibody 3 would facilitate an increase in ADCC activity. Antibodies purified from the 30 mM sucrose supplemented culture had the highest levels of high mannose N-glycans, and lowest levels of fucosylated N-glycans.

OC[C@H]1O[C@@](CO)(O[C@H]2O[C@H](CO)[C@@H](O)[C@H](O)[C@H]2O)[C@@H](O)[C@@H]1O [sucrose]
cumulative increase in overall mannosylated N-glycans: 19% | decrease in overall fucosylation level: 19% | drop in NGA2F species: 27% | increase in Man 5 species: 17% | increase in Man 6 species: 1% | increase in Man 7 species: 1% | increase in NGA2F-GlcNAc species: 8%
